Values of other authors as cited in patent US8178083B2, “Treatment of optic neuritis” (Ares Trading, S.A., priority 2005, dated 2012).

Tested on: patients with acute isolated unilateral optic neuritis

C[C@]12C=CC(=O)C=C1CC[C@@H]1[C@@H]2C(=O)C[C@@]2(C)[C@H]1CC[C@]2(O)C(=O)CO [prednisone]
risk of a new optic neuritis attack in the fellow eye versus placebo-treated group (oral prednisone 1 mg/kg per day for 14 days): more than double
patients who developed new bouts of optic neuritis (in either the affected or fellow eye) (within 2 years of follow-up): 30%
